Eight compounds from ChEMBL document CHEMBL4052701, “Bioactive new withanolides from the cultured soft coral Sinularia brassica” (Bioorg Med Chem Lett, 2017) can be followed below.

As usually defined, the IC50 is the concentration needed to halve the response being measured. The term inhibition denotes the change of the read-out against control, counted positive when it falls.

For one assay, the system named is P388. The assay is described as follows: Cytotoxicity against mouse P388 cells incubated for 72 hrs by alamar blue assay. In kind it is functional, cell-based. Particulars: P388, 72 h. On the technique in general: The colour change of resazurin is a common sign of viable cells or microbes.
The subject of another assay is MOLT-4. Nature of the assay: Cytotoxicity against human MOLT4 cells incubated for 72 hrs by alamar blue assay. In kind it is functional, cell-based. Particulars: MOLT-4, 72 h.
A further assay concerns K562. Nature of the assay: Cytotoxicity against human K562 cells incubated for 72 hrs by alamar blue assay. In kind it is functional, cell-based. Particulars: K562, 72 h.
The test system of the next assay is HT-29. Nature of the assay: Cytotoxicity against human HT-29 cells incubated for 72 hrs by alamar blue assay. In kind it is functional, cell-based. Particulars: HT-29, 72 h.
For assay [1], the system named is Neutrophil. Nature of the assay: Antiinflammatory activity in human neutrophils assessed as inhibition of fMLP/CB-induced superoxide anion generation by measuring superoxide […] dismutase inhibitable reduction of ferricytochrome c incubated for 5 mins. In kind it is functional, cell-based.
The subject of assay [2] is Neutrophil. The assay is described as follows: Antiinflammatory activity in human neutrophils assessed as inhibition of fMLP/CB-induced superoxide anion generation by measuring superoxide […] dismutase inhibitable reduction of ferricytochrome c at 10 uM incubated for 5 mins. In kind it is functional.
In assay [3] the test system is Neutrophil. Nature of the assay: Antiinflammatory activity in human neutrophils assessed as inhibition of fMLP/CB-induced elastase release incubated for 5 mins in presence of MeO-Suc-Ala-Ala-Pro-Val-p-nitroanilide. In kind it is functional, cell-based.
Assay [4] deals with Neutrophil. The assay is described as follows: Antiinflammatory activity in human neutrophils assessed as inhibition of fMLP/CB-induced elastase release at 10 uM incubated for 5 mins in presence of MeO-Suc-Ala-Ala-Pro-Val-p-nitroanilide. In kind it is functional.

Turning to `C[C@H]1[C@H]([C@@]2(O)O[C@H]3C[C@H]4[C@@H]5CCC6=CC(=O)C=C[C@]6(C)[C@H]5CC[C@]4(C)[C@H]3[C@@H]2C)OC(=O)[C@@H]1C`, the IC50 with P388 is 18.7 µM; with MOLT-4, 17.2 µM; in the assay with K562, 12.6 µM; with HT-29, 11.2 µM; in the assay with Neutrophil [1] it was greater than 10 µM; with Neutrophil [3], greater than 10 µM. Also, the inhibition at 10 µM was determined as 32.1% in the assay on Neutrophil [2] and 9.5% in the assay with Neutrophil [4].

As to `C[C@H]1[C@H]2[C@H](C[C@H]3[C@@H]4CCC5=CC(=O)C=C[C@]5(C)[C@H]4CC[C@]23C)O[C@@]2(OC(=O)[C@@H](C)[C@H]2C)[C@H]1O`, the half-maximal inhibitory concentration (IC50) in the assay on P388 is 18.3 µM; with MOLT-4, 13.7 µM; with K562, 17.4 µM; in the assay with HT-29 it was 20.5 µM; in the assay on Neutrophil [1], greater than 10 µM; in the assay on Neutrophil [3] it was greater than 10 µM. The inhibition at 10 µM came out at 34.3% in the assay on Neutrophil [2] and 11.4% in the assay on Neutrophil [4].

`CC[C@H](Nc1ncnc2[nH]cnc12)c1nc2cccc(F)c2c(=O)n1-c1ccccc1` [IDELALISIB]: the IC50 in the assay with Neutrophil [1] amounted to 0.07 µM; in the assay with Neutrophil [3], 0.3 µM. In addition, the inhibition at 10 µM with Neutrophil [2] is 103%; in the assay with Neutrophil [4] it was 99.6%.

With `C[C@@H]([C@H]1CC[C@H]2[C@@H]3CCC4=CC(=O)C=C[C@]4(C)[C@H]3CC[C@]12C)[C@H]1C[C@H](C)[C@@H](C)C(=O)O1`, the IC50 in the assay on P388 is greater than 40 µM; in the assay with MOLT-4, greater than 40 µM; in the assay on K562 it was greater than 40 µM; in the assay on HT-29 it was greater than 40 µM; in the assay with Neutrophil [1], greater than 10 µM; with Neutrophil [3], greater than 10 µM. In addition, the figures for the inhibition at 10 µM in the assay on Neutrophil [2] and with Neutrophil [4] were 26.3% and 25%, respectively.

Regarding `C[C@@H]1[C@H]([C@H]2OC(=O)[C@@H](C)[C@H]2C)O[C@H]2C[C@H]3[C@@H]4CCC5=CC(=O)C=C[C@]5(C)[C@H]4CC[C@]3(C)[C@@H]12`, the IC50 was 29.9 µM in the assay on P388; 12.1 µM with MOLT-4; 8.7 µM in the assay with K562; 18.7 µM in the assay on HT-29; 3.5 µM with Neutrophil [1]; 1.4 µM in the assay with Neutrophil [3]. Also, the inhibition at 10 µM in the assay with Neutrophil [2] turned out to be 87.7%; with Neutrophil [4], 114%.

As to `C[C@@H]1C(=O)[C@@]2(OC(=O)[C@H](C)[C@H]2C)O[C@H]2C[C@H]3[C@@H]4CCC5=CC(=O)C=C[C@]5(C)[C@H]4CC[C@]3(C)[C@H]21`, the IC50 is greater than 40 µM in the assay on P388; greater than 40 µM in the assay with MOLT-4; greater than 40 µM with K562; greater than 40 µM with HT-29; greater than 10 µM in the assay on Neutrophil [1]; greater than 10 µM in the assay on Neutrophil [3]. For the same compound, the inhibition at 10 µM in the assay on Neutrophil [2] was found to be 17.3%; with Neutrophil [4], 12.5%.

`O=c1[nH]cc(F)c(=O)[nH]1` [FLUOROURACIL]: the IC50 with P388 is 5.8 µM; in the assay with MOLT-4 it was 6.2 µM; with K562 it was 30.5 µM; in the assay with HT-29 it was 7.2 µM.

Turning to `C[C@H]1[C@H]2[C@H](C[C@H]3[C@@H]4CCC5=CC(=O)C=C[C@]5(C)[C@H]4CC[C@]23C)O[C@]2(OC(=O)[C@H](C)[C@H]2C)[C@H]1O`, the concentration for half-maximal inhibition (IC50) is 39.8 µM in the assay on P388; 28.6 µM in the assay with MOLT-4; 29.7 µM in the assay on K562; 24.4 µM in the assay with HT-29; greater than 10 µM in the assay with Neutrophil [1]; greater than 10 µM with Neutrophil [3]. For the same compound, the figures for the inhibition at 10 µM with Neutrophil [2] and with Neutrophil [4] were 14.4% and 32.4%, respectively.
